The results in this text go back to paper PMC6268972, “Antiproliferative, Antimicrobial and Apoptosis Inducing Effects of Compounds Isolated from Inula viscosa” (Molecules, 2012).

≈ marks a conversion by molar mass, not a printed value. Entries after “also recorded” stand apart in the source; their conditions may differ.

For one assay, the system named is MCF-7 cells. As to the kind of experiment: Scanning electron microscopy of MCF-7 cells. The settings on record: 15 µg/mL compound (vincristin sulfate 40 nM), 48 h. It counts as cell-based, human. How it is done: (§1) MCF-7 cells were cultured in complete DMEM containing either 15 µg/mL of 3-O-methylquercetin or 3,3′-di-O-methylquercetin and incubated for 48 h in humidified CO2 incubator. Negative control cells were incubated with complete DMEM and positive control cells received complete DMEM containing 40 nM vincristin sulfate. Treated cells were fixed with 3% glutaraldehyde for 1.5 h followed by osmium tetroxide (2% in PBS) for 1 h. After fixation, cells were washed in PBS and sequentially dehydrated using 30%, 70%, and 100% ethanol. Fixed cells were attached to a metal stubs and sputter coated with platinum by using Emitech K550X coating unit (Qourum Technology, West Sussex, UK). The coated specimens were viewed using Inspect F50/FEG scanning electron microscope (FEI, Eindhoven, The Netherlands) at accelerating voltage of 2–5 kV. Bacillus cereus cells treated with 3,3′-di-O-methylquercetin for 24 h were collected by centrifugation and washed with sodium phosphate buffer. Following that, the samples were fixed in 2.5% glutaraldehyde in 0.1 M phosphate buffer, pH 7.3, at 4 °C overnight, and postfixed in 1% osmium tetroxide in the phosphate buffer for 1 h at room temperature. Bacterial cells were dehydrated with sequential ethanol concentrations (30–100%) and coated for the observations under scanning electron microscope.

Assay [1] deals with Bacillus cereus. As to the kind of experiment: Scanning electron microscopy of Bacillus cereus cells. In kind it is cell-based. The settings on record: 62.5 µg/mL, 24 h. How it is done: as §1
In assay [2] the test system is Bacillus cereus. As to the kind of experiment: Microtiter plate dilution MIC, B. cereus. The settings on record: Bacillus cereus; Toxigenic strain TS, 24 h, 100% inhibition; read-out: Minimum inhibitory concentration (MIC) B.c. It counts as cell-based. How it is done: (§2) The microbial strains used in this study were Escherichia coli (ATCC 10798), Salmonella typhimurium (ATCC14028), Methicillin resistant Staphylococcus aureus (MRSA, Clinical isolate), Bacillus cereus (Toxigenic strain TS), and Candida albicans (ATCC 90028). Bacterial strains were stocked onto nutrient agar slant at 4 °C, and Candida albicans was stocked onto malt agar slant at 4 °C.
(§3) The microtiter plate dilution method was used to determine the MIC (minimum inhibitory concentration) of compounds under study. Sterile 96-well microplates (Nunc) were used for the assay. Stock compounds were dissolved in DMSO so that the final concentrations in micro wells were less than 1% DMSO and solvent controls were run at these concentrations. Positive controls of penicillin G and tetracycline (Oxoid, Hampshire, UK) were prepared at the following concentrations 2, 4, 8, 16, 31, 62.5, 125, and 250 μg/mL. 1% DMSO was used as a solvent control. Compounds were diluted to twice the desired initial test concentration (250 µg/mL) with Muller Hinton broth (MHB) (Oxoid). All wells, except the first were filled with MHB (50 μL). Compounds (100 μL) were added to the first well and serial two-fold dilutions were made down to the desired minimum concentration (2 μg/mL). An over-night culture of bacteria suspended in MHB was adjusted to turbidity equal to 0.5 McFarland standard. The plates were inoculated with bacterial suspension (50 μL/well) and incubated at 37 °C for 24 h. Then the turbidity was measured using micro-plate reader (Biotek) at 620 nm wavelength. The same procedure was used to determine the antifungal activity of compounds against Candida albicans. The medium used was malt extract broth. The yeast cells were suspended in 0.85% saline, with an optical density equivalent to 0.5 McFarland standard, and diluted 1:100 in malt extract broth to obtain the working concentration. After 24 h incubation with each compound, the turbidity was measured at 530 nm wavelength using a spectrophotometer (Biotek). Percentage inhibition for tested microorganisms was calculated using the following formula:
(§4) MIC was determined as the lowest concentration of the compound that causes complete inhibition (100%) of each microorganism.

The subject of a further assay is Escherichia coli. Nature of the assay: Microtiter plate dilution MIC, E. coli. In kind it is cell-based. The settings on record: Escherichia coli, ATCC10798; ATCC 10798, 24 h, 100% inhibition; read-out: Minimum inhibitory concentration (MIC) E.c. How it is done: as §2, §3, §4
For the next assay, the system named is Hep-2 cells. As to the kind of experiment: MTT antiproliferative activity assay, Hep-2. The settings on record: Homo sapiens, HEp-2; MTT, 48 h treatment, average of three replicates; read-out: IC50 Hep-2. It counts as cell-based. How it is done: Hep-2 (larynx carcinoma, ATCC: CCL-23), MCF-7 (breast epithelial adenocarcinoma, ATCC: HTB-22), and Vero (African green monkey kidney, ATCC: CCL-81) cell lines were kindly provided by Dr. Mona Hassuneh (Department of Biological Sciences, University of Jordan). Cells were grown in Minimum Essential Medium Eagle (Gibco, Paisley UK) supplemented with 10% heat inactivated fetal bovine serum (Gibco, Paisley UK), 29 μg/mL L-glutamine, and 40 μg/mL gentamicin. Cells were incubated in a humidified atmosphere of 5% CO2 at 37 °C.
The antiproliferative activity of Inula viscosa compounds was measured using the MTT (3-(4,5-dimethylthiazol-2-yl)-2,5-diphenyltetrazolium bromide) assay (Promega, Madison, WI, USA). The assay detects the reduction of MTT by mitochondrial dehydrogenase to blue formazan product, which reflects the normal function of mitochondria and cell viability. Exponentially growing cells were washed and seeded at 17,000 cells/well for Hep-2 cell line and 11,000 cells/ well for MCF-7 cell line (in 200 μL of growth medium) in 96 well microplates (Nunc, Roskilde, Denmark). After 24 h incubation, a partial monolayer was formed then the media was removed and 200 μL of the medium containing the compound (initially dissolved in DMSO) were added and re-incubated for 48 h. Then 100 μL of the medium were aspirated and 15 μL of the MTT solution were added to the remaining medium (100 μL) in each well. After 4 h contact with the MTT solution, blue crystals were formed. One hundred μL of the stop solution were added and incubated further for 1 h.
Reduced MTT was assayed at 550 nm using a microplate reader (Biotek, Winooski, VT, USA). Control groups received the same amount of DMSO (0.1%).Untreated cells were used as a negative control while, cells treated with vincristine sulfate were used as a positive control. Eight concentrations (150, 100, 50, 20, 10, 5, 2, and 1 μg/mL) were prepared from each compound and tested against the three cell lines. IC50 values were calculated as the concentrations that show 50% inhibition of proliferation on any tested cell line. Stock solutions of the compounds were dissolved in (DMSO) then diluted with the medium and sterilized using 0.2 μm membrane filters. The toxicity of DMSO was determined and the final dilution of compounds used for treating the cells contained not more than 0.1% (non toxic concentration) DMSO. IC50 values were reported as the average of three replicates. The antiproliferative effect of the tested compounds was determined by comparing the optical density of the treated cells against the optical density of the control (cells treated with media containing 0.1% DMSO).

In general, IC50 refers to the concentration needed to halve the response being measured. As to `COc1cc(-c2oc3cc(O)cc(O)c3c(=O)c2OC)ccc1O` [3,3′-di-O-Methylquercetin], in the assay on MCF-7 cells, the “Cytomorphological alterations (scanning electron microscopy)” value is “cell shrinkage, membrane blebbing, loss of contact with neighboring cells, and formation of apoptotic bodies”. Besides, the “Morphological changes of bacterial cells (scanning electron microscopy)” value with Bacillus cereus [1] is “induced damage in bacterial cell walls and cytoplasmic membranes”; in the assay on Bacillus cereus [1] (listed as 3,3′-di-O-methylquercetin), “Damages on both the bacterial cell wall and the cytoplasmic membrane; also recorded: Leakage of intracellular constituents”. The MIC in the assay with Bacillus cereus [2] is 62.5 µg/mL (≈ 189 µM); in the assay on Escherichia coli, more than 250 µg/mL. Moreover, the IC50 with Hep-2 cells came out at 28 ± 1.13 µg/mL (≈ 84.8 µM).
